From the supplement of paper PMC10307832

Experiments:
Test in all cases: relative viability (nuclei count vs DMSO), 5 days (fraction); higher = more cells survive
[1] = tested on: 201T
Procedure, shortened: (§1)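 Nuclei were stained with Hoechst during a one-step fixation (final 0.05% Triton X-100, 1% formaldehyde, 1 ug/ml Hoechst) carried out 5 days after dosing, then counted on 4× images. The cells, lung cancer lines in 1536-well plates, had been dosed by pin tool the day after seeding with one drug alone or a fixed anchor-drug dose plus five library-drug doses (not always all listed) in √10 steps. Relative viability is the nuclei count in treated wells divided by that in vehicle wells, and each value is the median of duplicate plates.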

[2] = tested on: BEN
Procedure, shortened: as §1

[3] = tested on: COR-L 105
Procedure, shortened: as §1

[4] = tested on: EKVX
Procedure, shortened: as §1

[5] = tested on: EPLC-272H
Procedure, shortened: as §1

[6] = tested on: H3255
Procedure, shortened: as §1

[7] = tested on: HCC-44
Procedure, shortened: as §1

[8] = tested on: HCC-827
Procedure, shortened: as §1

[9] = tested on: HOP-62
Procedure, shortened: as §1

[10] = tested on: LCLC-97TM1
Procedure, shortened: as §1

[11] = tested on: LOU-NH91
Procedure, shortened: as §1

[12] = tested on: LU99A
Procedure, shortened: as §1

[13] = tested on: NCI-H1395
Procedure, shortened: as §1

[14] = tested on: NCI-H1437
Procedure, shortened: as §1

[15] = tested on: NCI-H1666
Procedure, shortened: as §1

[16] = tested on: NCI-H1975
Procedure, shortened: as §1

[17] = tested on: NCI-H2085
Procedure, shortened: as §1

[18] = tested on: NCI-H2087
Procedure, shortened: as §1

[19] = tested on: NCI-H2126
Procedure, shortened: as §1

[20] = tested on: NCI-H2342
Procedure, shortened: as §1

[21] = tested on: NCI-H358
Procedure, shortened: as §1

[22] = tested on: NCI-H647
Procedure, shortened: as §1

[23] = tested on: PC-3 [JPC-3]
Procedure, shortened: as §1

[24] = tested on: SW 1573
Procedure, shortened: as §1

## Clc1ccc(Nc2nnc(Cc3ccncc3)c3ccccc23)cc1 [Vatalanib] + O=C(c1cc(Cc2n[nH]c(=O)c3ccccc23)ccc1F)N1CCN(C(=O)C2CC2)CC1 [Olaparib] (partner 8 µM)
[1]; first compound 0.04 µM
  relative viability: 0.833
[1]; first compound 0.1265 µM
  relative viability: 0.83
[1]; first compound 0.4 µM
  relative viability: 0.904
[1]; first compound 1.265 µM
  relative viability: 0.842
[1]; first compound 4 µM
  relative viability: 0.83
[2]; first compound 0.04 µM
  relative viability: 1.03
[2]; first compound 0.1265 µM
  relative viability: 1.01
[2]; first compound 0.4 µM
  relative viability: 1.31
[2]; first compound 1.265 µM
  relative viability: 1.04
[2]; first compound 4 µM
  relative viability: 0.877
[3]; first compound 0.04 µM
  relative viability: 0.719
[3]; first compound 0.1265 µM
  relative viability: 0.762
[3]; first compound 0.4 µM
  relative viability: 0.738
[3]; first compound 1.265 µM
  relative viability: 0.645
[3]; first compound 4 µM
  relative viability: 0.703
[4]; first compound 0.04 µM
  relative viability: 0.955
[4]; first compound 0.1265 µM
  relative viability: 0.885
[4]; first compound 0.4 µM
  relative viability: 0.851
[4]; first compound 1.265 µM
  relative viability: 0.66
[4]; first compound 4 µM
  relative viability: 0.756
[5]; first compound 0.04 µM
  relative viability: 0.944
[5]; first compound 0.1265 µM
  relative viability: 0.79
[5]; first compound 0.4 µM
  relative viability: 1.04
[5]; first compound 1.265 µM
  relative viability: 0.688
[5]; first compound 4 µM
  relative viability: 0.86
[6]; first compound 0.04 µM
  relative viability: 0.555
[6]; first compound 0.1265 µM
  relative viability: 0.579
[6]; first compound 0.4 µM
  relative viability: 0.596
[6]; first compound 1.265 µM
  relative viability: 0.576
[6]; first compound 4 µM
  relative viability: 0.543
[7]; first compound 0.04 µM
  relative viability: 1.05
[7]; first compound 0.1265 µM
  relative viability: 0.971
[7]; first compound 0.4 µM
  relative viability: 0.978
[7]; first compound 1.265 µM
  relative viability: 0.998
[7]; first compound 4 µM
  relative viability: 0.996
[8]; first compound 0.04 µM
  relative viability: 0.56
[8]; first compound 0.1265 µM
  relative viability: 0.655
[8]; first compound 1.265 µM
  relative viability: 0.534
[8]; first compound 4 µM
  relative viability: 0.638
[9]; first compound 0.04 µM
  relative viability: 0.385
[9]; first compound 0.1265 µM
  relative viability: 0.389
[9]; first compound 0.4 µM
  relative viability: 0.523
[9]; first compound 1.265 µM
  relative viability: 0.41
[9]; first compound 4 µM
  relative viability: 0.419
[10]; first compound 0.04 µM
  relative viability: 0.357
[10]; first compound 0.1265 µM
  relative viability: 0.375
[10]; first compound 0.4 µM
  relative viability: 0.338
[10]; first compound 1.265 µM
  relative viability: 0.39
[10]; first compound 4 µM
  relative viability: 0.345
[11]; first compound 0.04 µM
  relative viability: 0.912
[11]; first compound 0.1265 µM
  relative viability: 0.886
[11]; first compound 0.4 µM
  relative viability: 0.793
[11]; first compound 1.265 µM
  relative viability: 0.881
[11]; first compound 4 µM
  relative viability: 0.875
[12]; first compound 0.04 µM
  relative viability: 0.252
[12]; first compound 0.1265 µM
  relative viability: 0.281
[12]; first compound 0.4 µM
  relative viability: 0.237
[12]; first compound 1.265 µM
  relative viability: 0.23
[12]; first compound 4 µM
  relative viability: 0.309
[13]; first compound 0.04 µM
  relative viability: 0.448
[13]; first compound 0.1265 µM
  relative viability: 0.456
[13]; first compound 0.4 µM
  relative viability: 0.489
[13]; first compound 4 µM
  relative viability: 0.437
[14]; first compound 0.04 µM
  relative viability: 0.67
[14]; first compound 0.1265 µM
  relative viability: 0.625
[14]; first compound 0.4 µM
  relative viability: 0.679
[14]; first compound 1.265 µM
  relative viability: 0.625
[14]; first compound 4 µM
  relative viability: 0.606
[15]; first compound 0.04 µM
  relative viability: 0.72
[15]; first compound 0.1265 µM
  relative viability: 0.832
[15]; first compound 0.4 µM
  relative viability: 0.804
[15]; first compound 1.265 µM
  relative viability: 0.798
[15]; first compound 4 µM
  relative viability: 0.752
[16]; first compound 0.04 µM
  relative viability: 0.84
[16]; first compound 0.1265 µM
  relative viability: 0.727
[16]; first compound 0.4 µM
  relative viability: 0.729
[16]; first compound 1.265 µM
  relative viability: 0.709
[16]; first compound 4 µM
  relative viability: 0.695
[17]; first compound 0.04 µM
  relative viability: 0.839
[17]; first compound 0.1265 µM
  relative viability: 0.81
[17]; first compound 0.4 µM
  relative viability: 0.812
[17]; first compound 1.265 µM
  relative viability: 0.795
[17]; first compound 4 µM
  relative viability: 0.727
[18]; first compound 0.04 µM
  relative viability: 0.461
[18]; first compound 0.1265 µM
  relative viability: 0.542
[18]; first compound 0.4 µM
  relative viability: 0.682
[18]; first compound 1.265 µM
  relative viability: 0.519
[18]; first compound 4 µM
  relative viability: 0.633
[19]; first compound 0.04 µM
  relative viability: 0.888
[19]; first compound 0.1265 µM
  relative viability: 0.926
[19]; first compound 0.4 µM
  relative viability: 0.938
[19]; first compound 1.265 µM
  relative viability: 0.85
[19]; first compound 4 µM
  relative viability: 0.966
[20]; first compound 0.04 µM
  relative viability: 0.397
[20]; first compound 0.1265 µM
  relative viability: 0.452
[20]; first compound 0.4 µM
  relative viability: 0.461
[20]; first compound 1.265 µM
  relative viability: 0.365
[20]; first compound 4 µM
  relative viability: 0.471
[21]; first compound 0.04 µM
  relative viability: 0.566
[21]; first compound 0.1265 µM
  relative viability: 0.548
[21]; first compound 0.4 µM
  relative viability: 0.639
[21]; first compound 1.265 µM
  relative viability: 0.769
[21]; first compound 4 µM
  relative viability: 0.562
[22]; first compound 0.04 µM
  relative viability: 0.612
[22]; first compound 0.1265 µM
  relative viability: 0.582
[22]; first compound 0.4 µM
  relative viability: 0.582
[22]; first compound 1.265 µM
  relative viability: 0.584
[22]; first compound 4 µM
  relative viability: 0.531
[23]; first compound 0.04 µM
  relative viability: 1.15
[23]; first compound 0.1265 µM
  relative viability: 1.02
[23]; first compound 0.4 µM
  relative viability: 0.786
[23]; first compound 1.265 µM
  relative viability: 1.04
[23]; first compound 4 µM
  relative viability: 1.1
[24]; first compound 0.04 µM
  relative viability: 0.466
[24]; first compound 0.1265 µM
  relative viability: 0.521
[24]; first compound 0.4 µM
  relative viability: 0.506
[24]; first compound 1.265 µM
  relative viability: 0.55
[24]; first compound 4 µM
  relative viability: 0.355
